Measured values: patent US20240424115A1, “LONG-ACTING INTERLEUKIN-15 RECEPTOR AGONISTS AND RELATED IMMUNOTHERAPEUTIC COMPOSITIONS AND METHODS” (Nektar Therapeutics, priority 2017, published 2024)
“And” between values parts separate entries of the source, which are not always exact repeats. Identical values can stand only once. Like-named read-outs stand apart in the source and are kept apart here.

Key:
[1] = Single dose PK study in mice (plasma concentration)
Description: C57BL/6 mice (n=3/group) were administered a single intravenous dose of IL-15 (control) at 0.3 mg/kg) or of Conjugate 2 at a dose of 0.3 mg/kg. Following administration, blood samples were collected at various time points post administration (24 hours, 48 hours, 78 hours, 96 hours). […] Finally, at each time point, plasma concentration of drug was determined.
For PK analysis, Conjugate 1 was administered as a single intravenous dose at 0.3 mg/kg in balb/c mice (n=3). Following administration, mice were humanely sacrificed and plasma was collected 24, 48, 72, 96, 120 and 144 hours post treatment. From a separate study, mice were administered a single intravenous dose of IL-15 (0.5 mg/kg). Samples from these mice were collected at the indicated time points within 6 hours of treatment.
Balb/c mice (n=3/group) were administered a single intravenous dose of IL-15 (500 ug/kg) or of Conjugate 1 at 10, 30, 100, 300 and 1000 μg/kg. Blood samples were collected at the indicated time points post administration (conjugate 1:24, 48, 72, 96, 120, 144, 240 hours; IL-15 control: 0.03, 0.08, 0.25, 0.5, 1, 2, 4, 6, 8, hours) and plasma concentration of drug was determined.

[2] = system: human PBMCs; experiment: HuPBMC-pStat5 assay (flow cytometry, lymphocyte subpopulations); assay type: cell-based
Description: The potency of IL-15 or long acting IL-15 R agonists on various human lymphocyte subpopulations was determined by phospho-STAT5 (Y694) dose response assay. Frozen human PBMCs from multiple donors were supplied by AllCells. 1×10^6 cells/100ul were cultured in complete RPMI media for 2 hours and then incubated with the indicated concentrations (10,000ng/ml-0.001ng/ml serial dilutions) of IL-15 or conjugates for 20minutes at 37c. The cells were then fixed (using BD Cytofix) and permeabilized (using 100% pre-chilled methanol) and stained with antibodies for CD3, CD4, CD8, CD4-Tregs (CD4+CD25+Foxp3+), CD56 and phosphorylated STAT5 (Y694) before analysis by flow cytometry. Concentration-response relationships were used to calculate the EC50 values.
Assessment of in-vitro activity of exemplary long-acting IL-15 receptor agonists (e.g., Conjugates 1, 3 and 5) was carried out by investigating signaling in NK cell subsets of human PBMCs as shown in FIGS. 10A (CD56bright cells) and 10B (CD56dim cells). STAT5 phosphorylation was evaluated as previously described for assessing IL-15 signaling activity of the long acting IL-15 receptor agonists.
A second study was conducted to investigate/compare the pStat5 response of human PBMCs obtained from two donors (CD3, CD4, CD8, CD56 (bright and dim) and CD4-Tregs (CD25+Foxp3+)) to IL-15, Conjugate 1 and Conjugate 5. An […] dose response was examined using a 10-fold dilution with a dose range of 0.001-10000 ng/ml and a 20 min stimulation. Each of the test articles was diluted in IL-15 buffer+0.1% BSA.
Assessment of in vitro activity of Conjugate 1 was carried out by investigating NK and CD8 JAK/STAT signaling after treatment of human PBMCs with IL-15 or Conjugate 1 at a dose range of 0.001-10000 ng/ml. STAT5 phosphorylation was assessed as previously described.

[3] = system: CTLL-2 cells; experiment: Potency assay based on STAT5 phosphorylation in CTLL-2 cells; assay type: cell-based, murine
Description: In the phospho-STAT5 assay following receptor binding, downstream cell signaling can then activate Signal Transducer and Activator of Transcription 5 (STAT5) through phosphorylation to promote gene expression to induce cell proliferation. The activation of phosho-STAT5 is measured in CTLL-2 cells, a murine T lymphocyte cell line, using the phospho-STAT5/total STAT5 multiplexed assay (Meso Scale Discovery, MD) in response to sample and reference treatment for ˜10 minutes.
One day prior to the assay, CTLL-2 cells were split into fresh growth medium [RPMI 1640 supplemented with 10% FBS, 10% T-cell culture supplement (catalog #354115, Corning, Inc., Tewksbury, MA), 2 mM L-glutamate, and 1 mM sodium pyruvate]. On the day of assay, cells were pre-incubated in assay medium (RPMI 1640 supplemented with 1% FBS, 2 mM L-glutamate, and 1 mM sodium pyruvate) for at least four hours, and then plated in assay medium in a 96-well plate at 50,000 cells/well. Dilutions of the test article were prepared in an appropriate buffer immediately prior to assay. Stimulation of CTLL-2 cells was initiated by the transfer of 25X test article solutions to triplicate wells containing CTLL-2 cells. Plates were incubated at 37° C., 5% CO2 for 10 minutes, and the reaction was stopped by cell lysis. Detection of phospho-STAT5 and total STAT5 protein levels in cell lysates was performed using the MSD Phospho (Tyr694)/Total STATa,b Whole Cell Lysate Kit (Meso Scale Discovery, MD).

[4] = biological target: IL-15Rα (Homo sapiens, UniProt Q13261); experiment: Receptor affinity for IL-15Rα by surface plasmon resonance (BIAcore); assay type: binding
IL-15Rα, sequence (Q13261 31-205 limits assumed): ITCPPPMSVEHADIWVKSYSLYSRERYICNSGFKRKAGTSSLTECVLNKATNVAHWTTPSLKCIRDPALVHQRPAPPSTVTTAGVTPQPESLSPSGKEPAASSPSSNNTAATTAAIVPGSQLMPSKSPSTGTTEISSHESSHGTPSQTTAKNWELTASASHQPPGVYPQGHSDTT
Description: The affinities of IL-15 and exemplary long acting rIL-15 receptor agonists were measured using Surface Plasmon Resonance (“SPR”) using a BIAcore™ SPR system. Briefly, the surface of a Biacore CM5 sensor chip was activated using a 1:1 mixture of NHS: EDC to generate active NHS esters. Goat anti-human Fc antibody was covalently attached to the surface by injecting it for five minutes in 10 mM sodium acetate (pH 4). There were approximately 8000 RU of antibodies bound to the surface. Any remaining NHS ester was then quenched with ethanolamine.
At the initiation of each injection cycle, IL-15-Rα-Fc was captured on a sensor chip channel by a five-minute injection step in PBSP. Typically, 150-200 RU of receptors were bound on the surface.
(§1) Long acting rIL-15 receptor agonist test articles were diluted to 10 µM in PBS (containing 0.05% Tween 20 and 0.1 mg/ml BSA). A series of 3-fold dilutions were made and injected onto a sensor chip which was coated with IL-15Rα. The affinities were measured by determining the ka and kd rates separately, and the ratio between kd and ka was used to calculate the Kd values.
The affinities of exemplary long-acting IL-15 receptor agonists (test articles) for the IL-15 α receptor were measured and compared to IL-15. Affinity was measured by BIAcore using IL-15Rα:Fc captured by immobilized anti-Fc.
as §1, with “The” for “Long acting rIL-15 receptor agonist”, “μM” for “µM”, “between ka and” for “between”, “kd” for “kd and ka”, “[…]” for “Kd”

Q: Which results are given for mono-mPEG-SBA40K-IL-15 [Conjugate 1]?
A: half-life ([1]; Balb/c mice, single i.v. 10-1000 μg/kg (Example 23)): approximately 14 hours; half-life ([1]; balb/c mice, single i.v., Conjugate 1 0.3 mg/kg, IL-15 0.5 mg/kg (Example 16)): approximately 12 hours; EC50 (ng/ml)-% pSTAT5 CD3 donor1 ([2]; CD3 cells, donor1, 20 min stimulation): 0.75 ng/ml; EC50 (ng/ml)-% pSTAT5 CD3 donor2 ([2]; CD3 cells, donor2, 20 min stimulation): 1.1 ng/ml; EC50 (ng/ml)-% pSTAT5 Treg donor1 ([2]; CD4-Treg cells, donor1): 0.23 ng/ml; EC50 (ng/ml)-% pSTAT5 Treg donor2 ([2]; CD4-Treg cells, donor2): 0.37 ng/ml; EC50 (ng/ml)-% pSTAT5 CD4 donor1 ([2]; CD4 cells, donor1): 0.75 ng/ml; EC50 (ng/ml)-% pSTAT5 CD4 donor2 ([2]; CD4 cells, donor2): 0.83 ng/ml; maximum pSTAT5 response compared with IL-15 ([2]; CD8 and CD56 bright NK cells): achieves the same maximum response as conventional IL-15; EC50 (ng/ml)-% pSTAT5 CD8 donor1 ([2]; CD8 cells, donor1): 0.76 ng/ml; EC50 (ng/ml)-% pSTAT5 CD8 donor2 ([2]; CD8 cells, donor2): 1.54 ng/ml; EC50 (ng/ml)-% pSTAT5 CD56bright donor1 ([2]; CD56bright cells, donor1): 1.4 ng/ml; EC50 (ng/ml)-% pSTAT5 CD56bright donor2 ([2]; CD56bright cells, donor2): 1.9 ng/ml; EC50 (ng/ml)-% pSTAT5 CD56dim donor1 ([2]; CD56dim cells, donor1): 2.9 ng/ml; EC50 (ng/ml)-% pSTAT5 CD56dim donor2 ([2]; CD56dim cells, donor2): 5.9 ng/ml; less potent than IL-15 in engaging CD8 cells ([2]; Example 22, % pSTAT5): 5.5 X; less potent than IL-15 in engaging CD56 bright NK cells ([2]; Example 22, % pSTAT5): 15 X; IL-15 signaling (STAT5 phosphorylation) in huPBMCs ([2]; NK cell subsets CD56bright, CD56dim): potently induces such signaling; EC50 (ng/ml) pSTAT5 CD56bright NK ([2]; Table 3, CD56bright NK cells): 2.4 ng/ml; EC50 (ng/ml)-% pSTAT5 CD3 ([2]; Table 7 Summary Table, CD3): 0.75 ng/ml; EC50 (ng/ml)-% pSTAT5 CD4 ([2]; Table 7 Summary Table, CD4): 0.75 ng/ml; EC50 (ng/ml)-% pSTAT5 CD8 ([2]; Table 7 Summary Table, CD8): 0.76 ng/ml; EC50 (ng/ml)-% pSTAT5 CD56bright ([2]; Table 7 Summary Table, CD56bright): 1.4 ng/ml; EC50 (ng/ml)-% pSTAT5 CD56dim ([2]; Table 7 Summary Table, CD56dim): 2.9 ng/ml; EC50 (ng/ml)-% pSTAT5 Treg ([2]; Table 7 Summary Table, Treg): 0.23 ng/ml; IL-15 more potent than conjugate in inducing CD3, CD4, CD8 and Treg cells ([2]; Table 7 data): 3-4 fold; IL-15 more potent than conjugate in inducing CD56bright and CD56dim cells ([2]; Table 7 data): approximately 12 fold; IL-15 more potent than conjugate, CD3 and CD4 induction ([2]; pSTAT5 EC50, CD3 and CD4): 4-6 fold; IL-15 more potent than conjugate, CD56 induction ([2]; pSTAT5 EC50, CD56): ~10 fold; IL-15 more potent than conjugate, Treg and CD8 induction ([2]; pSTAT5 EC50, Treg and CD8): 3-5 fold; EC50 (ng/ml)-MFI CD3 donor1 ([2]; pSTAT5 MFI, CD3 cells, donor1): 22.1 ng/mL; EC50 (ng/ml)-MFI CD3 donor2 ([2]; pSTAT5 MFI, CD3 cells, donor2): 108.8 ng/mL; EC50 (ng/ml)-MFI Treg donor1 ([2]; pSTAT5 MFI, CD4-Treg cells, donor1): 2.5 ng/mL; EC50 (ng/ml)-MFI Treg donor2 ([2]; pSTAT5 MFI, CD4-Treg cells, donor2): 2.9 ng/mL; EC50 (ng/ml)-MFI CD4 donor1 ([2]; pSTAT5 MFI, CD4 cells, donor1): 23.54 ng/mL; EC50 (ng/ml)-MFI CD4 donor2 ([2]; pSTAT5 MFI, CD4 cells, donor2): 106.5 ng/mL; EC50 (ng/ml)-MFI CD8 donor1 ([2]; pSTAT5 MFI, CD8 cells, donor1): 16.73 ng/mL; EC50 (ng/ml)-MFI CD8 donor2 ([2]; pSTAT5 MFI, CD8 cells, donor2): 99.76 ng/mL; EC50 (ng/ml)-MFI CD56bright donor1 ([2]; pSTAT5 MFI, CD56bright cells, donor1): 7.8 ng/mL; EC50 (ng/ml)-MFI CD56bright donor2 ([2]; pSTAT5 MFI, CD56bright cells, donor2): 12.4 ng/mL; EC50 (ng/ml)-MFI CD56dim donor1 ([2]; pSTAT5 MFI, CD56dim cells, donor1): 23.25 ng/mL; EC50 (ng/ml)-MFI CD56dim donor2 ([2]; pSTAT5 MFI, CD56dim cells, donor2): 73.05 ng/mL; reduction in potency when compared to IL-15 ([3]; EC50 CTLL-2 pSTAT5): two-fold; EC50 (ng/mL) CTLL-2 pSTAT5 ([3]; Table 2B): 0.62 ng/mL; ka ([4]; Table 2A, IL-15Rα:Fc captured by anti-Fc): 492000 M⁻¹ s⁻¹; dissociation rate constant (kd) ([4]; Table 2A, dissociation rate): 0.000103 s⁻¹; Kd ([4]; Table 2A, read-out: KD): 0.209 nM; Kd ([4]; Table 2B, read-out: IL-15Rα KD): 0.201 nM and 0.209 nM; alpha receptor affinity of IL-15 retained ([4]; compared to IL-15): about 80%
